Assay results from patent US11015216B2, “Substituted imidazo[1,2-a]pyrazines as luciferase substrates” (PROMEGA CORPORATION, priority 2016, dated 2021).

Target: NanoLuc® Luciferase (Oplophorus gracilirostris, UniProt Q9GV45, A31E/A60N/A81I/F95D/I117V/K70R/L54V/L99Q/M102K/N193R/P142E/Q151K/Q38R/Q45L/V71I/Y165I)
Assay: not given
Type: biochemical
Details: ratio to coelenterazine (=1); initial light output three minutes after substrate addition
Method: (§1) Luminescence Assay Procedure: Each compound to be screened was dissolved in DMSO (5 mM) and then further diluted to 100 uM in NANO-GLOR Luciferase Assay Buffer. Each diluted substrate was then combined in equal volumes with purified NanoLuc® Luciferase diluted into CO2 independent media+10% FBS. Initial light output for each substrate was measured in a GloMax®-Multi+ luminometer three minutes after substrate addition and then at five minute intervals as a means to determine signal half-life.
A subset of the synthesized coelenterazine analogues (compounds of formula (I)) were evaluated for their suitability as luciferase substrates. NANOLUC® luciferase was employed for the screening because it is a small (19 kDa), stable, and particularly bright enzyme.

Chain of NanoLuc® Luciferase (Q9GV45 other isoform, or with tags, fused parts or gaps with the stated changes): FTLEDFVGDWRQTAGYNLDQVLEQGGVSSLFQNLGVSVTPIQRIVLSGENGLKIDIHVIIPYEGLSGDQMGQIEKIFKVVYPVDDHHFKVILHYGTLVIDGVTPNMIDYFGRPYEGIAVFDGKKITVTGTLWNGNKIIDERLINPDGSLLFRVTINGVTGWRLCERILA

In order of rising “I (relative light units, ratio in comparison to native coelenterazine)” value:
1. Oc1ccc(Cc2nc3c(Cc4ccccc4)nc(-c4ccc(O)cc4)cn3c2O)cc1 [coelenterazine, reference compound]  1
2. O=c1c(Cc2ccc(F)cc2)nc2c(Cc3ccccc3)[nH]c(-c3ccccc3)cn1-2 [Compound 2]  40

Same assay, conditions: ratio to coelenterazine (=1); read at five minute intervals

In order of rising “Half-life (signal half-life, ratio in comparison to native coelenterazine)” value:
1. O=c1c(Cc2ccc(F)cc2)nc2c(Cc3ccccc3)[nH]c(-c3ccccc3)cn1-2 [Compound 2]  0.16
2. Oc1ccc(Cc2nc3c(Cc4ccccc4)nc(-c4ccc(O)cc4)cn3c2O)cc1 [coelenterazine, reference compound]  1

Test system: luciferase
Assay: Additional luciferase substrate assay, compared to known analogue C-1 (Table 3)
Type: biochemical
Details: relative to C-1 (=1)
Method: as §1
The compounds of formula (I) were also evaluated for their ability to be luciferase substrates in an additional assay.

In order of falling “RLU (@100 uM)” value:
1. O=c1c(Cc2ccco2)nc2c(Cc3ccccc3)[nH]c(-c3ccccc3)cn1-2 [Compound C-1, 8-benzyl-2-(furan-2-ylmethyl)-6-phenylimidazo[1,2-a]pyrazin-3(7H)-one, reference compound]  1
2. O=c1c(Cc2ccc(F)cc2)nc2c(Cc3ccccc3)[nH]c(-c3ccccc3)cn1-2 [Compound 2]  0.96
3. COc1cccc(Cc2nc3c(Cc4ccccc4)[nH]c(-c4ccccc4)cn-3c2=O)c1 [Compound 17]  0.83
4. O=c1c(Cc2ccc(C(F)(F)F)o2)nc2c(Cc3ccccc3)[nH]c(-c3ccccc3)cn1-2 [Compound 41]  0.82
5. O=c1c(Cc2ccc3c(c2)OCO3)nc2c(Cc3ccccc3)[nH]c(-c3ccccc3)cn1-2 [Compound 59]  0.72
6. COc1ccc(Cc2nc3c(Cc4ccccc4)[nH]c(-c4ccccc4)cn-3c2=O)s1 [Compound 24]  0.68
7. COCc1ccc(Cc2nc3c(Cc4ccccc4)[nH]c(-c4ccccc4)cn-3c2=O)o1 [Compound 42]  0.52
8. CN(C)c1cccc(Cc2nc3c(Cc4ccccc4)[nH]c(-c4ccccc4)cn-3c2=O)c1 [Compound 51]  0.49
9. CCOc1cccc(Cc2nc3c(Cc4ccccc4)[nH]c(-c4ccccc4)cn-3c2=O)c1 [Compound 61]  0.49
10. COCc1cccc(Cc2nc3c(Cc4ccccc4)[nH]c(-c4ccccc4)cn-3c2=O)c1 [Compound 53]  0.47
11. CSc1cccc(Cc2nc3c(Cc4ccccc4)[nH]c(-c4ccccc4)cn-3c2=O)c1 [Compound 58]  0.47
12. COCc1ccc(Cc2nc3c(Cc4ccccc4)[nH]c(-c4ccccc4)cn-3c2=O)s1 [Compound 52]  0.45
13. COc1cc(Cc2nc3c(Cc4ccccc4)[nH]c(-c4ccccc4)cn-3c2=O)ccc1F [Compound 18]  0.4
14. COc1ccc(Cc2nc3c(Cc4ccccc4)[nH]c(-c4ccccc4)cn-3c2=O)cc1F [Compound 21]  0.32
15. CC(C)Cc1ccc(Cc2nc3c(Cc4ccccc4)[nH]c(-c4ccccc4)cn-3c2=O)s1 [Compound 39]  0.29
16. Nc1cccc(Cc2nc3c(Cc4ccccc4)[nH]c(-c4ccccc4)cn-3c2=O)c1 [Compound 25]  0.15
17. O=c1c(C/C=C/c2ccccc2)nc2c(Cc3ccccc3)[nH]c(-c3ccccc3)cn1-2 [Compound 29]  0.13
18. O=c1c(CC2=Cc3ccccc3OC2)nc2c(Cc3ccccc3)[nH]c(-c3ccccc3)cn1-2 [Compound 27]  0.1
19. COc1ccc(Cc2nc3c(Cc4ccccc4)[nH]c(-c4ccccc4)cn-3c2=O)cc1OC [Compound 57]  0.063
20. COCCOc1cccc(Cc2nc3c(Cc4ccccc4)[nH]c(-c4ccccc4)cn-3c2=O)c1 [Compound 62]  0.057
21. C=CCOc1ccc(Cc2nc3c(Cc4ccccc4)[nH]c(-c4ccccc4)cn-3c2=O)cc1OC [Compound 31]  0.054
22. O=c1c(Cc2ccc(-c3cccs3)s2)nc2c(Cc3ccccc3)[nH]c(-c3ccccc3)cn1-2 [Compound 38]  0.054
23. COc1cc(Cc2nc3c(Cc4ccccc4)[nH]c(-c4ccccc4)cn-3c2=O)ccc1O [Compound 32]  0.052
24. O=c1c(Cc2c(F)c(F)c(F)c(F)c2F)nc2c(Cc3ccccc3)[nH]c(-c3ccccc3)cn1-2 [Compound 43]  0.052
25. O=c1c(Cc2ccc(C3CCCCC3)s2)nc2c(Cc3ccccc3)[nH]c(-c3ccccc3)cn1-2 [Compound 37]  0.05
26. O=c1c(Cc2ccc(-c3ccccc3)cc2)nc2c(Cc3ccccc3)[nH]c(-c3ccccc3)cn1-2 [Compound 26]  0.046
27. O=c1c(Cc2cccc(CO)c2)nc2c(Cc3ccccc3)[nH]c(-c3ccccc3)cn1-2 [Compound 54]  0.04
28. Cn1c(Cc2nc3c(Cc4ccccc4)[nH]c(-c4ccccc4)cn-3c2=O)cc2sccc21 [Compound 85]  0.038
29. COCc1cc(Cc2nc3c(Cc4ccccc4)[nH]c(-c4ccccc4)cn-3c2=O)ccc1OC [Compound 50]  0.023
30. O=c1c(Cc2ccc(-c3ccccn3)s2)nc2c(Cc3ccccc3)[nH]c(-c3ccccc3)cn1-2 [Compound 34]  0.02
31. O=c1c(Cc2cc(C(F)(F)F)cc(C(F)(F)F)c2)nc2c(Cc3ccccc3)[nH]c(-c3ccccc3)cn1-2 [Compound 44]  0.019
32. Cn1cnnc1Sc1ccc(Cc2nc3c(Cc4ccccc4)[nH]c(-c4ccccc4)cn-3c2=O)o1 [Compound 33]  0.017
33. O=C(O)c1cccc(Cc2nc3c(Cc4ccccc4)[nH]c(-c4ccccc4)cn-3c2=O)c1 [Compound 47]  0.013
34. O=c1c(Cc2cccc3c2oc2ccccc23)nc2c(Cc3ccccc3)[nH]c(-c3ccccc3)cn1-2 [Compound 28]  0.01
35. CCCSc1ncc(Cc2nc3c(Cc4ccccc4)[nH]c(-c4ccccc4)cn-3c2=O)cn1 [Compound 56]  0.0098
36. Cn1nc(-c2ccc(Cc3nc4c(Cc5ccccc5)[nH]c(-c5ccccc5)cn-4c3=O)s2)cc1C(F)(F)F [Compound 40]  0.0042
37. O=c1c(Cc2cnccn2)nc2c(Cc3ccccc3)[nH]c(-c3ccccc3)cn1-2 [Compound 84]  0.003
38. CS(=O)(=O)Nc1cccc(Cc2nc3c(Cc4ccccc4)[nH]c(-c4ccccc4)cn-3c2=O)c1 [Compound 49]  0.002
39. O=c1c(Cc2ccncc2)nc2c(Cc3ccccc3)[nH]c(-c3ccccc3)cn1-2 [Compound 36]  0.0017
40. NCc1cccc(Cc2nc3c(Cc4ccccc4)[nH]c(-c4ccccc4)cn-3c2=O)c1 [Compound 48]  0.0013
41. Cn1nc(C(F)(F)F)c(Cc2nc3c(Cc4ccccc4)[nH]c(-c4ccccc4)cn-3c2=O)c1Cl [Compound 45]  0.0012
42. CC(C)(C)OC(=O)Nc1cccc(Cc2nc3c(Cc4ccccc4)[nH]c(-c4ccccc4)cn-3c2=O)c1 [Compound 23]  0.001
43. CC(C)(C)OC(=O)Nc1ccc(Cc2nc3c(Cc4ccccc4)[nH]c(-c4ccccc4)cn-3c2=O)cc1 [Compound 30]  0.001
44. CCCCCCCCCCCCc1nc2c(Cc3ccccc3)[nH]c(-c3ccccc3)cn-2c1=O [Compound 35]  0.0005
45. CCOP(=O)(OCC)c1nc2c(Cc3ccccc3)[nH]c(-c3ccccc3)cn-2c1=O [Compound 1, diethyl (8-benzyl-3-oxo-6-phenyl-3,7-dihydroimidazo[1,2-a]pyrazin-2-yl)phosphonate]  0.00048
46. CN(C)Oc1cccc(Cc2nc3c(Cc4ccccc4)[nH]c(-c4ccccc4)cn-3c2=O)c1 [Compound 60]  0.00038
47. O=c1c(C=Cc2ccccc2)nc2c(Cc3ccccc3)[nH]c(-c3ccccc3)cn1-2 [Compound 86]  0.0002
